In patent publication US20070071725A1, “Nitric oxide synthase gene transfer” (priority 2002, published 2007):
Entries after “also recorded” stand apart in the source; their conditions may differ.

Tests used:
[1] = tested on: right double atrial preparations; experiment: Heart rate (chronotropic) response of atrial preparations to carbachol; design: species or system rat
Protocol: Sutures (Ethicon, 5/0 mersilk) were placed at the lateral edges of both atria and the preparation was transferred to a pre-heated (37±0.1° C.) water-jacketed organ bath containing 100 ml of continuously oxygenated Tyrode's solution. The atria were vertically mounted with the suture in the left atrium connected to a stainless steel hook and the suture in the right atrium attached to an isometric force transducer (Harvard Apparatus, Model 60-2997, Mass. USA) connected to an amplifier. Heart rate was triggered from contraction and recorded in real time (Biopac MP100 with Acqknowledge software).
Preparations were equilibrated in Tyrode's solution for 60-90 minutes at 37° C. until a stable baseline heart rate was achieved. The right vagus was placed through a pair of custom-built platinum ring electrodes and stimulated at 3, 5, 7 and 10 Hz (15 V, 1 ms pulse duration; order of stimulations randomised) for 25 seconds, with an interval of at least 1 minute between successive stimulations. In some experiments vagal stimulation was repeated after application of the NO donor sodium nitroprusside (SNP; 20 μmol/L, 10 minutes incubation; Sigma). In addition, muscarinic responsiveness of atrial preparations was assessed using cumulative concentration-response curves to carbachol (0.1-0.5 μmol/L; Sigma; 2 minutes incubation at each concentration).

cGMP = cGMP efflux concentration in perfused right atrial preparation; design: species or system rat; settings: 0.3 μmol/L, SHR vs WKY
Protocol: Isolated, perfused, beating atria were prepared by previously described method33,34. In brief, the right rat atrium was dissected from the heart after the animal was killed. A cannula containing 2 small catheters sealed within it was inserted into the atrium and secured by ligatures. The outer tip of the atrial cannula was open to allow for outflow. The cannulated atrium was transferred to a preheated (36.5 […]), continuously oxygenated, waterjacketed organ chamber, immediately perfused with oxygenated Tyrode's solution by means of a peristaltic pump (0.5 ml/min).
The atria were perfused for 60 minutes to stabilize. […]
The radioactivity of [^3H]inulin in atrial perfusate was measured with a liquid scintillation counter, and the amount of ECF translocated through the atrial wall was caculated, the amount of ECF translocated through the atrial wall was calculated as: ECF translocated (μl/min/g atrial wet wt)=total radioactivity in the perfusate (cpm/min)×1000/radioactivity in the pericardial reservoir (cpm/μl)×atrial wet wt (mg).
For measurement of cGMP concentration in perfusate, 500 μl of the perfusate was treated with trichloroacetic acid to a final concentration of 6% for 15 minutes at room temperature and centrifuged at 4° C. […] The amount of cGMP efflux was expressed as pmol cGMP/min/g atrial tissue. […]

isolated right atrium = tested on: isolated right atrium; design: species or system SD rat; settings: 100 μM, Ad.PRS-nNOS treated atria, n=6
isolated right atria = experiment: Evoked [3H]NE release from isolated right atria of SHR and WKY five days after percutaneous gene transfer; design: species or system rat; settings: 10 μmol/L
isolated atria = experiment: [3H]ACh release from isolated atria on field stimulation; design: species or system rat; settings: 10 μmol/L, 5 Hz field stimulation, WKY
Protocol: Animals were killed and the right atria removed as described above. The preparation was then transferred to a preheated (37 ??0.2 ?C), continuously oxygenated, water-jacketed organ bath containing 4 ml of Tyrode's solution where the atrium was pinned flat between two parallel silver stimulating electrodes 10 mm apart. […] After a 45 minutes equilibration period (where the Tyrode's solution was replaced every 15 minutes), the atrium was stimulated at 5 Hz (15V, 1 ms pulse duration) for one minute and then again after another minute to stimulate acetylcholine turnover. […]
Following the wash period superfusion was stopped and the bath solution replaced every 3 minutes with a 0.5 ml sample being taken on every change of solution. This sample was added to 4.5 ml of scintillation fluid (Ecoscint A, National Diagnostics) and the amount of radioactivity in each sample (disintegrations per minute) measured using a liquid scintillation counter (Tri-carb 2800TR, Packard). […] At the end of the experiment, the atrium was immersed overnight in Tyrode's solution containing 4 U/ml papain (Sigma) and the radioactivity contained in the extract determined. [3H] outflow was expressed as a percentage of the total radioactivity in the atrium at the end of the experiment and that released after superfusion.

C[N+](C)(C)CCOC(N)=O [CCh, carbachol]
heart rate response, SHR compared to WKY ([1]; 0.1 μmol/L): significantly increased heart rate response in SHR compared to WKY
heart rate response, SHR compared to WKY ([1]; 0.2 μmol/L): No significantly changed
heart rate response, SHR compared to WKY ([1]; 0.5 μmol/L): significantly increased heart rate response in SHR compared to WKY
cGMP efflux concentration (cGMP): significantly increased cGMP efflux concentration in the SHR

NC(=NCCC[C@H](N)C(=O)O)N[N+](=O)[O-] [L-NNA, Nω-Nitro-Larginine]
effect on Ad.PRS-nNOS-induced attenuation of NE release (isolated right atrium): prevented the Ad.PRS-nNOS-induced attenuation of NE release; also recorded: reverse this response

O=c1onc2cnc3ccccc3n12 [ODQ, 1H-(1,2,4)oxadiazolo(4,3-a)quinoxaline-1-one]
effect on NE release (isolated right atria; Ad.PRS-eGFP treated SHR): did not effect
effect on NE release (isolated right atria; Ad.PRS-nNOS or Ad.PRS-eGFP treated WKY atria): significantly enhanced
effect on Ad.PRS-nNOS attenuation of NE release (isolated right atria; Ad.PRS-nNOS treated SHR): reversed
effect on [3H]ACh release (isolated atria): significantly enhanced
